Data: patent US20260166169A1, “ANTIBODY-DRUG CONJUGATE, PREPARATION METHOD AND USE THEREOF” (priority 2023, published 2026)

System: Detroit 562 cells
Test: In vitro killing assay of ADC on Detroit562 cells (CCK-8)
Assay type: cell-based
Details: Detroit 562, 5 days, 3-fold dilutions from 300 nM, CCK-8, FIG. 19
Procedure: Experimental Example 4: In Vitro Killing Assay of ADC on Detroit562 Cells
Detroit 562 cells (purchased from Nan Jing cobioer biosciences Co., Ltd.) were cultured so that a cell density reached to 80%. The cells were collected, plated in a 96-well plate, and the cell density was adjusted to 2-5×10^4/ml. Each well was plated with 100 μL of cells, and the ADC molecules were serially diluted 3 times with an initial concentration of 300 nM. After the dilution was completed, the ADC molecules were added to the cell culture medium and cultured for 5 days, during which the apoptosis of the cells was observed regularly. After 5 days, 15 μL of the CCK-8 kit stock solution was added to the 96-well plate and reacted in an incubator of 37° C. for 0.5-2 h. An absorbance at 450 nm was measured, and cell survival curves were drawn based on OD (optical density) readings and ADC dilution gradients.
Human IgG-DXD prepared in Comparative Example 4, Human IgG-LP1 prepared in Comparative Example 5, Human IgG-LP2 prepared in Comparative Example 7, Hu1H2-2-LP1 prepared in Example 6, Hu1H2-2-LP2 prepared in Example 8, and Hu1H2-2-DXD prepared in Comparative Example 9 were selected as ADC molecules. Wherein Human IgG was used as the isotype control of Hu1H2-2 antibody, and DXD was used as positive drug.

`CC[C@@]1(O)C(=O)OCc2c1cc1n(c2=O)Cc2c-1nc1cc(F)c(C)c3c1c2[C@@H](NC(=O)OCc1ccc(NC(=O)CNC(=O)[C@H](Cc2ccccc2)NC(=O)CNC(=O)CNC(=O)CCCCCN2C(=O)C=CC2=O)cc1CN(C)C(=O)CN(C)C(=O)CN(C)C(=O)CN(C)C(=O)CN(C)C(=O)CN(C)C(=O)CN(C)C(=O)CN(C)C(=O)CN(C)C(=O)CN(C)C(=O)CN(C)C(C)=O)CC3` [LP-2] was tested, and the “in vitro killing effect (cell survival curve)” value was “more excellent killing effects in vitro on Detriot562”.
